Laboratory results published in PMC10899660, “Global fungal-host interactome mapping identifies host targets of candidalysin” (Nature Communications, 2024).
Ends that are not written are not given here.

Key:
Cyclin H (CCNH) = target: T1, Cyclin H (CCNH) (Homo sapiens, UniProt P51946); assay: Surface plasmon resonance (SPR) on BIAcore; conditions: binding to CCNH; for kon: association rate, read-out: Ka
T1 construct: purchased Sino Biological Inc. Lot; ME12NO2769 (a lot number; catalogue number not given); host or cells: E. coli
T1 sequence (P51946 1-323): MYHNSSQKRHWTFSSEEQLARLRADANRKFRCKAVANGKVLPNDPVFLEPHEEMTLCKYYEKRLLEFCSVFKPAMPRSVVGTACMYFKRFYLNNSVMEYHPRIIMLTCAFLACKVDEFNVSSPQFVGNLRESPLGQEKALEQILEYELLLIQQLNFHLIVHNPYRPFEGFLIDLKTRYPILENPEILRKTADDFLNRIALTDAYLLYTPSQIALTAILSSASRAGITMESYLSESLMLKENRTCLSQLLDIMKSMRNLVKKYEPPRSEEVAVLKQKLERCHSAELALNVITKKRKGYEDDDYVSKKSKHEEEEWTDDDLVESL
Protocol: Recombinant Cyclin H (CCNH) protein with a C-HIS tag (Lot. ME12NO2769, 38.46 kDa) was obtained from Sino Biological Inc. and stored at −80 °C. In short, the cyclin H (Homo sapiens) gene was amplified by PCR and cloned into an expression vector which was transformed into E. coli followed by the selection and establishment of high expression transformants. The protein was purified using immobilized metal ion affinity chromatography and dissolved in PBS (pH 7.4). SPR measurement was performed with Biacore T200 instrument (GE), at 25 °C, with a flow rate of 30 μL/min. CM5 sensor chips, HBS-EP running buffer and the Amine Coupling Kit, including 1-ethyl-3(3-dimethylaminopropyl) carbodiimide hydrochloride (EDC), N-hydroxysuccinimide (NHS), 1.0 M ethanolamine-HCl (pH 8.5) were purchased from GE. The binding properties of candidalysin to CCNH were evaluated upon immobilization of CCNH onto CM5 chip surface in flow cell 2 (FC-2) using Biacore Amine Coupling Kit according to the manufacturer’s instructions. CCNH was diluted to 20 μg/ml in acetate buffer (pH 4.0) in advance and immobilized on the CM5 Chip following the EDC/NHS protocol. The reached immobilized target level was 1200 RU. The reference flow cell (FC-1) was blank-immobilized following the templated procedure. BIAcore measurements were performed starting from a 1:1 serial dilution of candidalysin following the templated multicycle analysis (association time 120 s, dissociation time 150 s, flow 30 μL/min). The SPR measurement for Ece1-II, Ece1-IV, Ece1-V and human cathelicidin (Solarbio, CLP0454) to CCNH were performed with Biacore 8 K instrument (GE) by PBST running buffer, and the other conditions were the same.

A549 cells = assay: Western blot of CCNH and γ-H2AX, A549 and CCNH-KD A549 cells; format: cell-based; conditions: A549, 10 μM, 4 h
Protocol: (§1) Cells were lysed with cell lysis buffer (Beyotime, #P0013) on ice for 30 min. The supernatant of cell lysate was then collected in a table-top refrigerated centrifuge at 4 °C and 14,000 × g for 10 min. Protein concentration was determined by Pierce™ BCA Protein Assay Kit (Thermo Scientific™, #23227). Antibodies against the following proteins were used for Western blotting analysis: CCNH antibody (CST,Rabbit Source, Cat#2927, 1:1000 dilution), gama-H2AX antibody (CST, Rabbit Source, Cat#97185, 1:1000 dilution), GAPDH (D16H11) XP® Rabbit mAb (CST, Rabbit Source, Cat#5174 S, 1:1000 dilution), Anti-CDK2 (phospho T160) + CDK1 (phospho T161) antibody (Abcam, Rabbit Source, Cat#EPR17621, 1:1000 dilution), Anti-rabbit IgG, HRP-linked Antibody (CST, Goat Source, Cat#7074, 1:5000 dilution), […] Tag (D6W5B) Rabbit mAb (CST, Rabbit Source, Cat#14793, 1:1000 dilution), GFP (4B10) Mouse mAb (CST, Mouse Source, Cat #2955, 1:1000 dilution), Anti-mouse IgG,HRP-linked antibody (CST, Goat Source, Cat#7076, 1:5000 dilution). Membranes were treated with SuperSignal™ West Pico PLUS Chemiluminescent Substrate (Thermo Scientific™, #34577) prior to visualization in the Chemiluminescence Imaging Analysis System (BG-gdsAUTO720, Baygene). GAPDH was used as the loading control.

FaDu cells = assay: Western blot of CCNH and γ-H2AX, FaDu cells; format: cell-based; conditions: comparison toxins / low-dose Triton X-100
Protocol: as §1

Molecule	kon (Cyclin H (CCNH)) [M⁻¹ s⁻¹]	DNA damage (CCNH and γ-H2AX expression) (FaDu cells)	further results
CC[C@H](C)[C@H](NC(=O)CNC(=O)[C@H](C)NC(=O)[C@@H](NC(=O)[C@@H](NC(=O)[C@H](CO)NC(=O)[C@H](CC(=O)O)NC(=O)[C@@H](NC(=O)[C@H](CC(=O)O)NC(=O)[C@@H](N)CCC(=O)O)[C@@H](C)CC)C(C)C)C(C)C)C(=O)N[C@H](C(=O)N[C@@H](C)C(=O)N[C@@H](CC(=O)O)C(=O)N[C@@H](CCSC)C(=O)N1CCC[C@H]1C(=O)N[C@@H](Cc1ccccc1)C(=O)N[C@H](C(=O)N[C@H](C(=O)N[C@@H](CCCNC(=N)N)C(=O)N[C@@H](C)C(=O)N[C@H](C(=O)N[C@@H](CC(=O)O)C(=O)N[C@H](C(=O)N[C@@H](C)C(=O)N[C@@H](CCSC)C(=O)N[C@H](C(=O)N[C@@H](CO)C(=O)N[C@H](C(=O)N[C@@H](C)C(=O)N[C@@H](CO)C(=O)N[C@H](C(=O)N[C@@H](CCCCN)C(=O)N[C@@H](CCCNC(=N)N)C(=O)O)[C@@H](C)O)C(C)C)[C@@H](C)O)[C@@H](C)O)C(C)C)C(C)C)C(C)C)[C@@H](C)CC [Ece1-IV]	49.8	–	–
CC[C@H](C)[C@H](NC(=O)[C@H](CO)NC(=O)[C@H](CCC(N)=O)NC(=O)[C@H](CCC(N)=O)NC(=O)[C@@H](NC(=O)CNC(=O)[C@@H](NC(=O)[C@H](C)NC(=O)[C@@H](NC(=O)[C@H](CCCNC(=N)N)NC(=O)[C@H](C)NC(=O)[C@@H](NC(=O)[C@@H](NC(=O)[C@H](CCC(=O)O)NC(=O)[C@@H]1CCCN1C(=O)[C@H](CC(C)C)NC(=O)[C@H](CCCNC(=N)N)NC(=O)[C@@H](NC(=O)[C@@H](NC(=O)[C@H](C)NC(=O)[C@H](CC(N)=O)NC(=O)[C@H](C)NC(=O)[C@@H](NC(=O)[C@H](CC(=O)O)NC(=O)[C@H](CC(=O)O)NC(=O)[C@H](CC(N)=O)NC(=O)[C@H](C)NC(=O)CNC(=O)[C@@H](N)CC(=O)O)C(C)C)C(C)C)C(C)C)[C@@H](C)CC)C(C)C)C(C)C)[C@@H](C)O)C(C)C)C(=O)N[C@@H](CCC(=O)O)C(=O)N[C@@H](CC(N)=O)C(=O)N[C@@H](C)C(=O)N[C@@H](CCCCN)C(=O)N[C@@H](CCCNC(=N)N)C(=O)O [Ece1-V]	228	–	–
CN(C)C/C=C/C(=O)Nc1ccc(C(=O)Nc2cccc(Nc3ncc(Cl)c(-c4c[nH]c5ccccc45)n3)c2)cc1 [THZ1]	–	–	CCNH and γ-H2AX expression (A549 cells): prominently elevated CCNH and γ-H2AX expression
FKRIVQRIKDFLRNLVPRTES [Amp]	3040	–	Kd (Cyclin H (CCNH); column pK, row KD (M)): 6.26e-05 M
Triton X-100	–	failed to induce severe DNA damage	–
mellitin: pore forming toxin	–	failed to induce severe DNA damage	–
